The source of these data is ChEMBL document CHEMBL1132058, “Potent inhibitors of protein farnesyltransferase: heteroarenes as cysteine replacements” (Bioorg Med Chem Lett, 1999).

Some results are limits rather than exact numbers.

One may read the IC50 as the concentration needed to halve the response being measured. Broadly, the Inhibition is how much of the control response was suppressed. The EC50 is the concentration that produces a half-maximal response. For orientation: inhibition means the change of the read-out against control, counted positive when it falls. In general, Tmax refers to the time at which the peak concentration occurs. The term AUC denotes the area under the concentration-time curve, a measure of exposure. In general, bioavailability refers to dose-corrected exposure relative to a reference, in per cent. For orientation: Cmax means the highest concentration seen after dosing. Usually half-life stands for how long it takes for the measured level to halve.

Series [1] deals with Protein farnesyltransferase (Homo sapiens, UniProt P49354+P49356). The series can be described thus: Inhibitory activity against farnesyltransferase (FT) using SPA assay. In kind it is protein-complex assay.
Series [2] relates to NIH3T3. The series can be described thus: (§1) Inhibition of H-ras processing in subconfluent H-Ras-transformed NIH3T3 cells. In kind it is functional, Mus musculus. Set-up: concentration or dose not given beside the values.
Series [3] has as its system NIH3T3. The description is as §1. Format: functional, Mus musculus.
For series [4], the system named is NIH3T3. Described as §1. The following applies: Mus musculus. In kind it is functional, cell-based.
The subject of series [5] is NIH3T3. The series can be described thus: Inhibition of H-ras processing in subconfluent H-Ras-transformed NIH3T3 cells at 1 uM. In kind it is functional. The following applies: Mus musculus.
A short description of series [6]: Tmax value in dog after oral administration at a dose of 5 mg/kg. In kind it is ADME, organism-based, Canis lupus familiaris. Set-up: dose 5 mg/kg, route oral. The following applies: in vivo.
The nature of series [7]: AUC value in dog after oral administration at a dose of 5 mg/kg. Format: ADME, organism-based, Canis lupus familiaris. Details: dose 5 mg/kg, route oral. The following applies: plasma.
Series [8] is described as follows: AUC value in dog after IV administration at a dose of 5 mg/kg. The following applies: plasma. Set-up: dose 5 mg/kg, route intravenous. In kind it is ADME, organism-based, Canis lupus familiaris.
Series [9] in a line: Bioavailability in rat after oral administration at a dose of 10 mg/kg. As to conditions: in vivo. In kind it is ADME, organism-based.
Series [10] is described as follows: Tmax value in rat after oral administration at a dose of 10 mg/kg. In kind it is ADME, organism-based. Details: dose 10 mg/kg, route oral. As to conditions: in vivo.
Series [11] can be described thus: Cmax value in rat after oral administration at a dose of 10 mg/kg. Format: ADME, organism-based. The following applies: in vivo. Details: dose 10 mg/kg, route oral.
Series [12] is described as follows: Bioavailability in dog after oral administration at a dose of 5 mg/kg. As to conditions: in vivo. Format: ADME, organism-based, Canis lupus familiaris.
Series [13] in a line: Cmax value in dog after oral administration at a dose of 5 mg/kg. Format: ADME, organism-based, Canis lupus familiaris. Details: dose 5 mg/kg, route oral. The following applies: in vivo.
Series [14] in a line: Half life period in dog after IV administration at a dose of 5 mg/kg. Set-up: dose 5 mg/kg, route intravenous. The following applies: in vivo. Format: ADME, organism-based, Canis lupus familiaris.
A short description of series [15]: AUC value in rat after IV administration at a dose of 10 mg/kg. Set-up: dose 10 mg/kg, route intravenous. The following applies: plasma. Format: ADME, organism-based.
Series [16] can be described thus: Half life period in rat after IV administration at a dose of 10 mg/kg. In kind it is ADME, organism-based. Set-up: dose 10 mg/kg, route intravenous. As to conditions: in vivo.
A short description of series [17]: AUC value in rat after oral administration at a dose of 10 mg/kg. Format: ADME, organism-based. Set-up: dose 10 mg/kg, route oral. The following applies: plasma.

Regarding `CSCC[C@H](NC(=O)c1ccc(/C(C#N)=C/c2cccnc2)cc1-c1ccccc1C)C(=O)O`, the IC50 in [1] was 0.59 nM. In addition, in the series with NIH3T3 [2], the Inhibition came out at 57%.
For `COc1ccncc1/C=C/c1ccc(C(=O)N[C@@H](CCSC)C(=O)O)c(-c2ccccc2C)c1`, in that order: 2.9 nM and 66%.
Turning to `CSCC[C@H](NC(=O)c1ccc(/C=C/c2cnccc2C(O)c2ccccc2)cc1-c1ccccc1C)C(=O)O` (stereo partly specified), in series [1], the IC50 was 0.58 nM. Also, in the series with NIH3T3 [3], the Inhibition is 67%.
For `CSCC[C@H](NC(=O)c1ccc(/C=C/n2ccnc2)cc1-c1ccccc1C)C(=O)O`, the EC50 in the series with NIH3T3 [4] is > 1000 nM. The midpoint of inhibition in [1], the IC50, lay at 0.2 nM.
On the same counts, the results for `CSCC[C@H](NC(=O)c1ccc(CCn2ccnc2)cc1-c1ccccc1C)C(=O)O` are > 1000 nM and 0.21 nM.
On the same counts, the results for `CSCC[C@H](NC(=O)c1ccc(/C=C/c2cnc3ccccc3c2)cc1-c1ccccc1C)C(=O)O` are > 1000 nM and 16 nM.
`CSCC[C@H](NC(=O)c1ccc(/C=C/c2cnccn2)cc1-c1ccccc1C)C(=O)O`: the concentration for half-maximal inhibition (IC50) in [1] amounted to 57 nM.
In series [1], `CSCC[C@H](NC(=O)c1ccc(/C(=C\c2cccnc2)C(=O)OC(C)(C)C)cc1-c1ccccc1C)C(=O)O` had an IC50 of 15 nM. Also, the Inhibition in the series on NIH3T3 [2] is on record as 35%.
`CSCC[C@H](NC(=O)c1ccc(/C=C/c2cnccc2C(O)(c2ccccc2)c2ccccc2)cc1-c1ccccc1C)C(=O)O`: inhibition in series [1] was half-maximal at 0.66 nM (IC50). Also, in the series with NIH3T3 [3], the Inhibition is on record as 63%.
In [1], `CSCC[C@H](NC(=O)c1ccc(C#Cc2cncnc2)cc1-c1ccccc1C)C(=O)O` gave an IC50 of 140 nM.
In series [1], `CSCC[C@H](NC(=O)c1ccc(/C=C/c2cnccc2O)cc1-c1ccccc1C)C(=O)O` came in with an IC50 of 0.29 nM. In the series with NIH3T3 [2], this compound displayed an Inhibition of 75%.
`CSCC[C@H](NC(=O)c1ccc(/C=C/c2cncnc2)cc1-c1ccccc1C)C(=O)O`: half-maximal inhibition in [1] (IC50) required 25 nM.
As to `CSCC[C@H](NC(=O)c1ccc(/C=C/c2cncs2)cc1-c1ccccc1C)C(=O)O`, in the series on NIH3T3 [4], the concentration giving a half-maximal response (EC50) was > 1000 nM. The midpoint of inhibition in [1], the IC50, lay at 2.4 nM.
Turning to `CSCC[C@H](NC(=O)c1ccc(CCc2c[nH]cn2)cc1-c1ccccc1C)C(=O)O`, the EC50 in the series on NIH3T3 [4] is > 1000 nM. In addition, the IC50 in series [1] was found to be 0.15 nM.
In series [1], `CSCC[C@H](NC(=O)c1ccc(/C=C/c2ccc(Oc3ccccc3)nc2)cc1-c1ccccc1C)C(=O)O` gave an IC50 of 26 nM.
In the case of `CSCC[C@H](NC(=O)c1ccc(/C=C/c2cnccc2C2(O)CCCCC2)cc1-c1ccccc1C)C(=O)O`, the IC50 in series [1] is 0.81 nM. Also, in the series with NIH3T3 [2], the Inhibition was determined as 74%.
`CSCC[C@H](NC(=O)c1ccc(/C=C/c2cnccc2C(=O)c2ccccc2)cc1-c1ccccc1C)C(=O)O` displayed an EC50 with NIH3T3 [4] of 1000 nM. The compound also displayed an IC50 in series [1] of 0.92 nM.
Consider `CSCC[C@H](NC(=O)c1ccc(/C=C/c2cncc3ccccc23)cc1-c1ccccc1C)C(=O)O`, for which, in the series on NIH3T3 [5], 1 µM produced 64% inhibition. In series [1], the midpoint of inhibition, the IC50, lay at 0.8 nM.
With `CSCC[C@H](NC(=O)c1ccc(/C(C#N)=C\c2cccnc2)cc1-c1ccccc1C)C(=O)O`, in series [1], the IC50 is 3.6 nM. The Inhibition with NIH3T3 [2] is given as 60%.
The compound `CSCC[C@H](NC(=O)c1ccc(/C=C/c2cnccc2OCc2cc(F)cc(F)c2)cc1-c1ccccc1C)C(=O)O` came in with an IC50 in [1] of 0.3 nM.
The compound `CCCOc1ccncc1/C=C/c1ccc(C(=O)N[C@@H](CCSC)C(=O)O)c(-c2ccccc2C)c1` registered a concentration for half-maximal inhibition (IC50) in series [1] of 1.4 nM. Further, the Inhibition in the series on NIH3T3 [2] is 49%.
For `CSCC[C@H](NC(=O)c1ccc(/C(=C/c2cccnc2)C(=O)OC(C)(C)C)cc1-c1ccccc1C)C(=O)O`, in that order: 0.91 nM and 80%.
For the compound `CSCC[C@H](NC(=O)c1ccc(COc2cccnc2)cc1-c1ccccc1C)C(=O)O`, in series [1], it took 0.4 nM to reach half-maximal inhibition (IC50).
As for `CSCC[C@H](NC(=O)c1ccc(/C=C/c2cnccc2C(O)[C@]23C[C@H]4C[C@H](C[C@H](C4)C2)C3)cc1-c1ccccc1C)C(=O)O` (stereo partly specified), the IC50 in series [1] stood at 0.37 nM. The compound further showed an Inhibition with NIH3T3 [2] of 61%.
In the case of `CSCC[C@H](NC(=O)c1ccc(/C=C/c2cncc(Cc3ccccc3)c2)cc1-c1ccccc1C)C(=O)O`, in the series with NIH3T3 [4], the 50% effective concentration (EC50) was > 1000 nM. The compound also came in with an IC50 in [1] of 4.7 nM.
As for `CSCC[C@H](NC(=O)c1ccc(/C=C/c2cccnc2)cc1-c1ccccc1C)C(=O)O`, the Tmax in series [6] was 22.8 min; in [10], 19.8 min. Moreover, the AUC amounted to 2560 ng·h/mL in series [7], 10500 ng·h/mL in [8], 6660 ng·h/mL in [15] and 870 ng·h/mL in [17]. Also, the bioavailability in series [9] came to 23%; in series [12], 24.5%. Moreover, the Cmax in series [11] is 321 ng/mL; in series [13], 2830 ng/mL. In series [1], this compound showed a 50% inhibitory concentration (IC50) of 0.61 nM. Moreover, the half-life in [14] was 33 min; in [16], 129 min. Further, the Inhibition in the series with NIH3T3 [3] is 79%.
Turning to `CSCC[C@H](NC(=O)c1ccc(/C=C/c2c[nH]cn2)cc1-c1ccccc1C)C(=O)O`, the EC50 in the series on NIH3T3 [4] is > 1000 nM. This compound also came in with an IC50 in [1] of 0.63 nM.
For `CSCC[C@H](NC(=O)c1ccc(C#Cc2cccnc2)cc1-c1ccccc1C)C(=O)O`, in that order: 1000 nM and 2.7 nM.
For `CSCC[C@H](NC(=O)c1ccc(/C=C/c2cncc(-c3ccccc3)c2)cc1-c1ccccc1C)C(=O)O`, in series [1], it took 12 nM to reach half-maximal inhibition (IC50).
In series [1], `CSCC[C@H](NC(=O)c1ccc(/C=C/c2cnccc2C(O)C2CCCCC2)cc1-c1ccccc1C)C(=O)O` (stereo partly specified) returned an IC50 of 0.54 nM. This compound came in with an Inhibition in the series with NIH3T3 [2] of 63%.
For `CSCC[C@H](NC(=O)c1ccc(CCc2cccnc2)cc1-c1ccccc1C)C(=O)O`, 2.1 nM corresponded to half-maximal inhibition in series [1] (IC50).
For `CSCC[C@H](NC(=O)c1ccc(/C=C/c2cnccc2Cl)cc1-c1ccccc1C)C(=O)O`, the IC50 in [1] came out at 0.29 nM. For the same compound, the Inhibition in the series with NIH3T3 [2] was determined as 60%.
On the same counts, the results for `CSCC[C@H](NC(=O)c1ccc(/C=C/c2cnccc2C(=O)[C@]23C[C@H]4C[C@H](C[C@H](C4)C2)C3)cc1-c1ccccc1C)C(=O)O` are 0.12 nM and 74%.
For the compound `CSCC[C@H](NC(=O)c1ccc(NC[C@@H](N)CS)cc1-c1ccccc1)C(=O)O`, the EC50 with NIH3T3 [4] worked out at 1000 nM.
